Source: patent US20140148498A1, “METHODS AND COMPOSITIONS FOR THE TREATMENT OF MARFAN SYNDROME AND ASSOCIATED DISORDERS” (THE JOHNS HOPKINS UNIVERSITY, priority 2011, published 2014)
“Also recorded” adds a separate entry of the source.

Key:
[1] = tested on: Smad2; test: Western blot of aortic root and proximal ascending aorta: Smad2 activation (Examples 4-5); format: in vivo, mice; conditions: Fbn1^C1039G/+ mice, FIG. 10B
Description: (§1) All mice were cared for under strict compliance with the Animal Care and Use Committee of the Johns Hopkins University School of Medicine. The Fbn1^C1039G/+ and AT2KO lines were maintained n a pure C57BL/6 background (backcrossed for greater than 9 generations), allowing for valid comparisons. In order to further accommodate the potential for temporal- or background-specified variation, all comparisons were made between contemporary littermates when possible. The AT21C0 mice were obtained as a generous gift from Dr. Inagami (T. Ichiki et al., Nature 377, 748 (1995)). The Agtr2 gene resides on the X chromosome and therefore we used either male mice carrying the mutated allele (who are hemizygous) or homozygous females, both of which have been previously shown to be functionally null for the AT2 receptor (T. Ichiki et al., Nature 377, 748 (1995)). Mice were sacrificed with an inhalation overdose of halothane (Sigma-Aldrich, St. Louis). Mice underwent immediate laparotomy, descending abdominal aortic transection, and PBS (pH 7.4) was infused through the right and left ventricles to flush out the blood. Mice that were analyzed for Western Blot analysis had their proximal ascending aortas (root to right brachiocephalic trunk) immediately dissected out, flash frozen in liquid nitrogen and stored at −80d until further processing. Mice that were analyzed for aortic histology had latex injected under low pressure into the left ventricular apex until it was visible in the descending abdominal aorta. Mice that were analyzed for lung histology had their trachea intubated with a 20-gauge blunted needle, and 0.5% agar was infused under a low and constant pressure to gradually inflate the lungs. The trachea was then tied-off using vicryl and the needle was removed. Mice were fixed for 24 hours in 10% buffered formalin, after which the heart, aorta and lungs were removed and stored in 70% ethanol.
Mouse aortic root and ascending aortas (aortic root excluding the aortic valve to origin of right brachiocephalic trunk) were harvested, snap-frozen in liquid nitrogen and stored at −80° C. until processed. Protein was extracted using the reagents and protocol from a Total Protein Extraction Kit containing protease inhibitor and Protein Phosphatase Inhibitor Cocktail (Millipore, MA). Aortas were homogenized using a pellet pestle motor (Kimble-Kontes, NJ) as per the extraction kit protocol. […] Equal protein loading of samples was determined by a protein assay (BioRad, CA), and confirmed by probing with antibodies against β-Actin or GAPDH (Sigma, Mo.). […] Blots were then washed in PBS-T, developed using SuperSignalWest HRP substrate (Pierce Scientific, IL), exposed to BioMax Scientific Imaging Film (Sigma, Mo.) and quantified using Imaged analysis software (NIH, MD).

[2] = tested on: JNK1; test: Western blot of proximal ascending aorta: JNK1 activation (Examples 4-5); format: in vivo, mice; conditions: Fbn1^C1039G/+ mice, FIG. 13
Description: as §1, with “The trachea was then tied-off using vicryl and the needle was removed. Mice were fixed for 24 hours in 10% buffered formalin, after which the heart, aorta and lungs were removed and stored in 70% ethanol.” left out
(§2) Mouse aortic root and ascending aortas (aortic root excluding the aortic valve to origin of right brachiocephalic trunk) were harvested, snap-frozen in liquid nitrogen and stored at −80° C. until processed. […] Equal protein loading of samples was determined by a protein assay (BioRad, CA), and confirmed by probing with antibodies against β-Actin or GAPDH (Sigma, Mo.). […]

[3] = tested on: Fbn1^C1039G/+ mice; test: Systolic blood pressure by tail cuff; format: in vivo; conditions: compared to placebo-treated animals, FIG. 8
Experimental: (§3) Mice were started on medication at 8 weeks of age and continued for 7 months. Losartan was dissolved in drinking water and filtered to reach a concentration of 0.6 g/L, giving an estimated daily dose of 40-60 mg/kg/day. Enalapril was dissolved in drinking water and filtered to reach a final concentration of 0.15 g/L, giving an estimated daily dose of 10-15 mg/kg/day. […] Spironolactone was dissolved in drinking water and filtered to give an estimated dose of 20 mg/kg/day, a dose previously shown to have in-vivo phenotypic benefit in cardiovascular disease states (S. Sakurabayashi-Kitade et al., Atherosclerosis 206, 54 (2009)). Placebo-treated animals received regular drinking water. Blood pressures were analyzed by taking 20 tail cuff blood pressures per day over 5 days in each mouse to habituate the mice to the tail cuff pressure system, and the blood pressures obtained on the last day were averaged. At least 4 mice for each treatment group were analyzed.

[4] = tested on: p38; test: Western blot of proximal ascending aorta: p38 activation (Examples 4-5); format: in vivo, mice; conditions: Fbn1^C1039G/+ mice, FIG. 13
Description: as §1, with “The trachea was then tied-off using vicryl and the needle was removed. Mice were fixed for 24 hours in 10% buffered formalin, after which the heart, aorta and lungs were removed and stored in 70% ethanol.” left out
as §2

[5] = tested on: ERK1/2; test: Western blot of aortic root and proximal ascending aorta: ERK1/2 activation (Examples 4-5); format: in vivo, mice; conditions: Fbn1^C1039G/+ mice, FIG. 10B
Description: as §1, with “The trachea was then tied-off using vicryl and the needle was removed. Mice were fixed for 24 hours in 10% buffered formalin, after which the heart, aorta and lungs were removed and stored in 70% ethanol.” left out
as §2

[6] = tested on: Fbn1^C1039G/+ mice; test: Aortic root growth by echocardiography, 7 months of treatment (Examples 3-5); format: in vivo; conditions: for Final absolute aortic root diameter: 7 months of treatment; for Aortic root growth over 7 months of treatment: versus placebo, drug in drinking water from 8 weeks of age
Experimental: A head-to-head comparison of ACEi versus ARBs was performed. Fbn1^C1039G/+ mice and WT littermates were treated with hemodynamically equivalent doses (FIG. 8) of either the ACEi enalapril (10 to 15 mg/kg of body weight per day) or the ARB losartan (40 to 60 mg/kg per day) (R. D. Patten et al., Clin. Sci 104, 109 (2003)), beginning at 8 weeks of age, and were assessed with serial echocardiograms. […] It is noteworthy that losartan reduced aortic root growth in Fbn1^C1039G/+ mice, but had no effect in WT littermates (P=0.27). […] Whether AT2 signaling is needed to achieve losartan's full therapeutic benefit was assessed. AT2KO:Fbn1^C1039G/+ mice were treated with losartan from 8 weeks of age and followed by serial echocardiography until they were killed at 9 months of age (FIG. 2C).
as §1, §3
Nair hair removal cream was used on all mice the day prior to echocardiograms. All echocardiograms were performed on awake, unsedated mice using the Visualsonics Vevo 660 V1.3.6 imaging system and a 30 MHz transducer. Mice were imaged at baseline, 1 month after treatment and then every two months until the time of sacrifice. […]

[7] = tested on: Fbn1^C1039G/+ mice; test: Aortic wall architecture score (VVG staining); format: in vivo
Experimental: Latex-infused ascending aortas were transected just above the level of the aortic valve, and 2-3 mm transverse sections were mounted in 4% agar prior to paraffin fixation. Five micrometer aortic sections underwent Verhoeff-van Giesen (VVG) staining and were imaged at 40× magnification, using a Nikon Eclipse E400 microscope. Wall thickness of the aortic media was measured by a single blinded observer at 16 different locations around the most proximal ascending aortic ring and averaged. Wall architecture of 4 representative sections for each mouse was assessed by the same 3 blinded observers and graded on an arbitrary scale of 1 (indicating no breaks in the elastic fiber) to 5 (indicating diffuse fragmentation), and the results were averaged. Elastic fiber content was quantified in four separate representative images of each section of the most proximal ascending aorta by a single blinded observer, using NIS Elements Advanced Research (Nikon, Japan). The aortic media and the elastic fibers were individually outlined and their areas calculated. The respective areas were averaged from all the images of a given aortic section and the ratio of elastic fiber content to total aortic media was determined. Individual lobes of the lungs were mounted in 4% agar and fixed in paraffin. Five micrometer lung sections underwent hematoxylin and eosin staining and were imaged at 10× magnification, using a Nikon Eclipse E400 microscope. Five fields were analyzed for each lobe of each lung by a single blinded observer, and a mean linear intercept was calculated using a previously described method (J. P. Habashi et al., Science 312, 117 (2006); and E. R. Neptune et al., Nat. Genet. 33, 407 (2003)).

[8] = tested on: Fbn1^C1039G/+ mice; test: Aortic root and ascending aortic growth by echocardiography (Examples 6-8); format: in vivo
Description: (§4) All mice were cared for under strict compliance with the Animal Care and Use Committee of the Johns Hopkins University School of Medicine. The Smad4 haploinsufficient mice were a generous gift from Dr. Chuxia Deng (NIH/NIDDK, Bethesda). The Fbn1^C1039G/+ line was maintained on a C57BL/6 background, allowing for valid comparisons. In order to further accommodate the potential for temporal- or background-specific variation in genetic or pharmacological manipulation experiments, all comparisons were made between contemporary littermates. Mice were checked daily for death and all mice found dead were immediately necropsied to assess for evidence of aortic dissection. Mice were killed with an inhalation overdose of halothane (Sigma-Aldrich, St. Louis). Mice underwent immediate laparotomy, descending abdominal aortic transection, and PBS (pH 7.4) infusion through the left ventricle to flush out the blood. For Western blot analysis, the proximal ascending aorta (root to right brachiocephalic trunk) was removed, flash frozen in liquid nitrogen and stored at −80° C. Following PBS infusion, mice analyzed for aortic histology had latex injected under low pressure into the left ventricular apex until it was visible in the descending abdominal aorta. The mice were then fixed for 24 hours in 10% buffered formalin, after which the heart and aorta were removed and stored in 70% ethanol.
Mouse monoclonal TGFβNAb (1d11; R&D Systems, Minneapolis) was reconstituted in PBS and administered via intraperitoneal injection 3 times a week at a dose of 5 mg/kg. Treatment was initiated at 1 month of age and continued for 2 months. IgG (Zymed Laboratories Inc, San Francisco) was reconstituted in PBS, and administered at a dose of 10 mg/kg as a control. SP600125 (Sigma-Aldrich, St. Louis) was reconstituted in 10% DMSO dissolved in PBS, and administered twice daily by intraperitoneal injection, at a dose of 30 mg/kg. Treatment was initiated at 1 month of age and continued for 2 months. 10% DMSO dissolved in PBS was administered as a control. RDEA119 was reconstituted in 10% 2-hydroxypropyl-beta-cyclodextrin (Sigma-Aldrich, St. Louis) dissolved in PBS, and administered twice daily by oral gavage at a dose of 25 mg/kg. Treatment was initiated at 2 months of age and continued for 2 months. 10% 2-hydroxypropyl-beta-cyclodextrin dissolved in PBS was administered as a control. Fasudil was dissolved in drinking water, and administered at a dose of 1 mg/kg body weight per day. Treatment was initiated at 2 months of age and continued for 4 months. Drinking water was administered as a control.
Nair hair removal cream was used on all mice the day prior to echocardiography. All echocardiograms were performed on awake, unsedated mice using the Visualsonics Vevo 660 V1.3.6 imaging system and a 30 MHz transducer. The aorta was imaged using a parasternal long axis view. Three separate measurements of the maximal internal systolic dimension at the sinus of Valsalva and proximal ascending aorta were made, and a mean was calculated. All imaging and measurements were performed by a cardiologist who was blinded to genotype and treatment arm. In the TGFβNAb and SP600125 trials, mice were imaged at 1 month (baseline) and 3 months of age, after which they were killed. In the RDEA119 trial, mice were imaged at 2 months (baseline) and 4 months of age, after which they were killed. In the fasudil trial, mice were imaged at 2 months (baseline) and 6 months of age, after which they were killed. Smad4 haploinsufficient mice were imaged at 1 month, and then every 2 months thereafter, until death or sacrifice.

[9] = tested on: WT mice; test: Aortic root growth by echocardiography, WT mice (Examples 6-8); format: in vivo; conditions: 1 mg/kg per day in drinking water, 4 months, FIG. 18
Description: as §4
Mouse monoclonal TGFβNAb (1d11; R&D Systems, Minneapolis) was reconstituted in PBS and administered via intraperitoneal injection 3 times a week at a dose of 5 mg/kg. Treatment was initiated at 1 month of age and continued for 2 months. IgG (Zymed Laboratories Inc, San Francisco) was reconstituted in PBS, and administered at a dose of 10 mg/kg as a control. […]
Nair hair removal cream was used on all mice the day prior to echocardiography. […] Three separate measurements of the maximal internal systolic dimension at the sinus of Valsalva and proximal ascending aorta were made, and a mean was calculated. […]

CCOC(=O)[C@H](CCc1ccccc1)N[C@@H](C)C(=O)N1CCC[C@H]1C(=O)O [enalapril]
Smad2 activation [1]: decreased | Smad2 activation ([1]; listed as Enalapril): significantly more than losartan | JNK1 activation [2]: small reduction in JNK1 activation; also recorded: modest reduction in JNK1 activation | Systolic blood pressure [3]: equal reduction in systolic blood pressure | p38 activation [4]: do not affect p38 activation; also recorded: neither had any effect | ERK1/2 activation [5]: no more effective than placebo; also recorded: failed to reduce ERK1/2 activation | Final absolute aortic root diameter ([6]; FIG. 2B, mean +/- 2 SEM): 2.18+/−0.18 mm | Aortic root growth over 7 months of treatment [6]: marginal (P=0.05) decrease in growth | Aortic root growth over 7 months of treatment ([6]; listed as Enalapril): only marginally better than placebo treatment | Aortic wall architecture score ([7]; FIG. 9): no more effective than placebo | Aortic wall architecture score ([7]; FIG. 9, listed as Enalapril): no more beneficial than placebo

CC(=O)S[C@@H]1CC2=CC(=O)CC[C@]2(C)[C@H]2CC[C@@]3(C)[C@@H](CC[C@@]34CCC(=O)O4)[C@H]12 [spironolactone]
Final absolute aortic root diameter ([6]; FIG. 15, mean +/- 2 SEM): 2.19+/−0.19 | Aortic root growth over 7 months of treatment [6]: no significant difference; also recorded: no significant inhibition of aortic root growth

O=S(=O)(c1cccc2cnccc12)N1CCCNCC1 [fasudil]
Absolute final aortic root diameter ([8]; 1 mg/kg per day in drinking water, 4 months, FIG. 18): 2.40+/−0.16 | Aortic root growth over 4 months ([8]; fasudil trial): lack of rescue of aortic root growth; also recorded: failed to attenuate aortic root growth | Absolute final aortic root diameter [9]: 1.73+/−0.05
